PubChem BioAssay AID1224920 (Broad Institute, 2016)
Where “and” joins values, the source holds several entries; their conditions need not be identical. Equal entries are not always repeated.

test system: Clostridium difficile clinical isolate growth, OD600, 24 h; assay: growth modulation of Clostridium difficile isolate – OD600, 9-point, retest, dose response (AID 1224920);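 note: inhibitors lower culture turbidity so OD600 falls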

Compound	IC50
CC(C)CC#Cc1ccc([C@@H]2[C@H](CO)N3CCCCN(C(=O)Nc4ccccc4)C[C@@H]23)cc1	13.1 µM
Fc1cccc(CN2C[C@@H]3N[C@H](C2)C3c2ccc(-c3ccccc3)cc2)c1 (some centres not stated)	8.38 µM and 10.4 µM
Cc1cccc(S(=O)(=O)N2C[C@@H]3N[C@H](C2)C3c2ccc(-c3ccccc3F)cc2)c1 (some centres not stated)	11.3 µM
COc1cccc(S(=O)(=O)N2C[C@@H]3N[C@H](C2)C3c2ccc(-c3cccc(C)c3)cc2)c1 (some centres not stated)	8.9 µM
CC(C)CC#Cc1ccc([C@@H]2[C@@H](CO)N3CCCCN(C(=O)Nc4ccccc4)C[C@H]23)cc1	10.9 µM
Cc1cccc(-c2ccc(C3[C@@H]4CN(C(=O)Nc5ccc(F)cc5)C[C@H]3N4)cc2)c1 (some centres not stated)	12.2 µM
COc1cccc(S(=O)(=O)N2C[C@@H]3N[C@H](C2)C3c2ccc(-c3ccccc3F)cc2)c1 (some centres not stated)	26 µM
Cc1ccccc1-c1ccc(C2[C@H]3CNC[C@@H]2N3C(=O)Nc2ccc(Cl)cc2)cc1 (some centres not stated)	16.9 µM and 34.3 µM
COc1ccc(C#Cc2ccc([C@H]3[C@@H](CO)N4CCCCN(Cc5ccccc5F)C[C@H]34)cc2)cc1	4.95 µM
COc1ccccc1CN1C[C@@H]2N[C@H](C1)C2c1ccc(-c2ccc(C#N)cc2)cc1 (some centres not stated)	45.1 µM
COc1ccccc1CN1CC[C@@H]2[C@H](CO)Nc3ccc(C#Cc4ccccc4)cc3[C@@H]21	31.2 µM
N#Cc1ccc(-c2ccc([C@@H]3[C@H]4CNC[C@@H]3N4Cc3ccc4c(c3)OCO4)cc2)cc1	102 µM
OC[C@@H]1[C@H](c2ccc(C#CC3CCCC3)cc2)[C@H]2CN(CCC(F)(F)F)CCCCN12	26.6 µM
O=C(C[C@H]1CC[C@H]2[C@@H](COC[C@@H](O)CN2C(=O)Nc2ccc(C(F)(F)F)cc2)O1)NC1Cc2ccccc2C1	16.6 µM
COc1cc(CN2[C@@H]3CNC[C@H]2C3c2ccc(/C=C/c3ccccc3)cc2)cc(OC)c1 (some centres not stated)	12.2 µM
O=C(C[C@H]1CC[C@H]2[C@@H](COC[C@H](O)CN2C(=O)Nc2ccc(C(F)(F)F)cc2)O1)NC1Cc2ccccc2C1	3.82 µM
O=C(C1CCCCC1)N1C[C@@H]2N[C@H](C1)C2c1ccc(-c2cccc(F)c2)cc1 (some centres not stated)	67.8 µM
O=C(C[C@H]1CC[C@@H]2[C@H](COC[C@@H](O)CN2C(=O)Nc2ccc(Cl)c(Cl)c2)O1)NC1CCC1	27.5 µM
COc1ccc(-c2ccc(C3[C@@H]4CN(S(=O)(=O)c5ccccc5C)C[C@H]3N4)cc2)cc1 (some centres not stated)	21.9 µM
O=S(=O)(c1ccccc1)N1C[C@@H]2N[C@H](C1)C2c1ccc(-c2ccc(F)cc2)cc1 (some centres not stated)	51.4 µM
COc1ccccc1NC(=O)N1CCCCN2[C@H](CO)[C@H](c3ccc(-c4cccc(C)c4)cc3)[C@H]2C1	10.3 µM

Compound	IC50
Fc1ccc(-c2ccc(C3[C@@H]4CN(Cc5ccccc5)C[C@H]3N4)cc2)cc1 (some centres not stated)	5.92 µM and 31.9 µM
Cc1cccc(S(=O)(=O)N2CCCCN3[C@H](CO)[C@H](c4ccc(C#CC5CC5)cc4)[C@H]3C2)c1	27.9 µM
O=C(C[C@@H]1CC[C@H]2[C@@H](COC[C@@H](O)CN2C(=O)Nc2ccc(Cl)c(Cl)c2)O1)NC1CCC1	8 µM
O=C(Nc1ccc(F)cc1)N1C[C@@H]2N[C@H](C1)C2c1ccc(/C=C/c2ccccc2)cc1 (some centres not stated)	5.52 µM and 10 µM
C/C=C/c1ccc(C2[C@@H]3CN(Cc4ccc5c(c4)OCO5)C[C@H]2N3)cc1 (some centres not stated)	46.3 µM and 55.8 µM
O=C(Nc1ccc(C(F)(F)F)cc1)N1C[C@@H]2N[C@H](C1)C2c1ccc(-c2cccc(F)c2)cc1 (some centres not stated)	2.63 µM and 2.5 µM
COc1ccc(C#Cc2ccc([C@@H]3[C@H](CO)N4CCCCN(Cc5ccccc5F)C[C@@H]34)cc2)cc1	8.12 µM
COc1ccc(-c2ccc(C3[C@H]4CNC[C@@H]3N4Cc3ccc4c(c3)OCO4)cc2)cc1 (some centres not stated)	53.1 µM
COc1ccccc1NC(=O)N1C[C@@H]2N[C@H](C1)C2c1ccc(/C=C/c2ccccc2)cc1 (some centres not stated)	10.7 µM
Fc1ccc(-c2ccc(C3[C@@H]4CN(Cc5cccc(F)c5)C[C@H]3N4)cc2)cc1 (some centres not stated)	5.47 µM and 20.4 µM
CCCNC(=O)C[C@@H]1CC[C@@H]2[C@H](COC[C@H](O)CN2C(=O)Nc2ccc(Cl)c(Cl)c2)O1	12 µM
C(=C\c1ccc(C2[C@@H]3CN(Cc4cccnc4)C[C@H]2N3)cc1)/c1ccccc1 (some centres not stated)	52.1 µM and 56.8 µM
OC[C@H]1[C@@H](c2ccc(-c3cccc(F)c3)cc2)[C@@H]2CN(CCC(F)(F)F)CCCCN12	53.8 µM
Cc1ccccc1-c1ccc([C@H]2[C@@H](CO)N3CCCCN(C(=O)Nc4ccc(F)cc4)C[C@H]23)cc1	27.4 µM
O=S(=O)(Cc1ccccc1)N1CCCCN2[C@@H](CO)[C@@H](c3ccc(-c4ccc(F)cc4)cc3)[C@@H]2C1	38 µM
COc1cc(CN2[C@@H]3CNC[C@H]2C3c2ccc(-c3ccc(C#N)cc3)cc2)cc(OC)c1 (some centres not stated)	48.1 µM
O=C(Nc1cccc(F)c1)N1CCCCN2[C@@H](CO)[C@@H](c3ccc(-c4ccccc4F)cc3)[C@@H]2C1	13.1 µM
COc1cccc(CN2C[C@@H]3N[C@H](C2)C3c2ccc(-c3cccc(C#N)c3)cc2)c1 (some centres not stated)	75.5 µM and 30.6 µM
Cc1ccccc1-c1ccc(C2[C@@H]3CN(C(=O)NC4CCCCC4)C[C@H]2N3)cc1 (some centres not stated)	57.7 µM
O=C(Nc1ccccc1F)N1CCCCN2[C@@H](CO)[C@@H](c3ccc(/C=C/c4ccccc4)cc3)[C@@H]2C1	11.5 µM
O=C(Nc1cccc(F)c1)N1CCCCN2[C@H](CO)[C@H](c3ccc(C#CC4CC4)cc3)[C@H]2C1	47.6 µM
